In US8324250B2 (Hoffmann-La Roche Inc., priority 2009, dated 2012):
pKi: −log10 of the molar value.

Target: T1, recombinant human NK3 receptor (Homo sapiens, UniProt P29371)
T1 construct: expressed in transfected cells; host or cells: HEK293 cells (transient expression), membranes
T1 sequence (P29371 1-465): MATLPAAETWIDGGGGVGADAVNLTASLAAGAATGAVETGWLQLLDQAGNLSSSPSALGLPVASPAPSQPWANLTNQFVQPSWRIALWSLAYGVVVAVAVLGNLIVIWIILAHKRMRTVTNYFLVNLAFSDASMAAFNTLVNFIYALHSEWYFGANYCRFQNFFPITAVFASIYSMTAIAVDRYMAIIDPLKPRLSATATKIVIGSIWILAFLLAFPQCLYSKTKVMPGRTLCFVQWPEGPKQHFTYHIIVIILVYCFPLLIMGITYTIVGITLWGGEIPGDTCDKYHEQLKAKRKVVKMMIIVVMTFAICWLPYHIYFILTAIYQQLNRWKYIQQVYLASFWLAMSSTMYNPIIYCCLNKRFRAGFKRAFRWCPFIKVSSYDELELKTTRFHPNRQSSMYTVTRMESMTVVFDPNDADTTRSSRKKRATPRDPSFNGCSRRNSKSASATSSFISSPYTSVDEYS
Experiment: [3H]SR142801 competition binding assay
Settings: membranes from HEK293 cells transiently expressing recombinant human NK3 receptor; [3H]SR142801 radioligand; 75 min at RT; Ki by Cheng-Prussoff; read-out: Data Ki (hNK-3 receptor affinity)
Summary of the method: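 Membranes from HEK293 cells transiently expressing the receptor, 5 μg protein/well, in 50 mM Tris-HCl pH 7.4 with 4 mM MnCl2, 1 μM phosphoramidon, 0.1% BSA; nonspecific binding defined with 10 μM SB222200. Filtration and scintillation counting; IC50 from Hill fit, Ki by Cheng-Prussoff using saturation-derived KD, duplicates.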

SMILES | pKi
CC(=O)c1ccc(-c2ccc(C(=O)N3CCC(C(=O)N[C@@H](C)c4ccccc4)(c4ccccc4)CC3)cc2)cc1 [Example 59, 1-(4′-Acetyl-biphenyl-4-carbonyl)-4-phenyl-piperidine-4-carboxylic acid ((S)-1-phenyl-ethyl)-amide] | 7.43
C[C@H](NC(=O)C1(c2ccccc2)CCN(C(=O)c2ccc(-c3ccc(F)cc3)cc2)CC1)c1ccc(Cl)cc1 [Example 102, 1-(4′-Fluoro-biphenyl-4-carbonyl)-4-phenyl-piperidine-4-carboxylic acid [(S)-1-(4-chloro-phenyl)-ethyl]-amide] | 7.76
C[C@H](NC(=O)C1(c2ccccc2)CCN(C(=O)N2CCC(c3ccccc3)CC2)CC1)c1ccccc1 [Example 204, 4-Phenyl-1-(4-phenyl-piperidine-1-carbonyl)-piperidine-4-carboxylic acid ((S)-1-phenyl-ethyl)-amide] | 7.10
C[C@H](NC(=O)C1(c2ccccc2)CCN(C(=O)c2csc(-c3cccnc3)n2)CC1)c1ccccc1 [Example 28, 4-Phenyl-1-(2-pyridin-3-yl-thiazole-4-carbonyl)-piperidine-4-carboxylic acid ((S)-1-phenyl-ethyl)-amide] | 7.12
CC[C@H](NC(=O)C1(c2ccccc2)CCN(C(=O)c2ccc(N3CCS(=O)(=O)CC3)cc2)CC1)c1ccccc1 [Example 84, 1-[4-(1,1-Dioxo-1λ6-thiomor-pholin-4-yl)-benzoyl]-4-phenyl-piperidine-4-carboxylic acid ((S)-1-phenyl-propyl)-amide] | 8.55
C[C@H](NC(=O)C1(c2ccccc2)CCN(C(=O)N2CCN(C3CCCC3)CC2)CC1)c1ccccc1 [Example 215, 1-(4-Cyclopentyl-piperazine-1-carbonyl)-4-phenyl-piperidine-4-carboxylic acid ((S)-1-phenyl-ethyl)-amide] | 7.69
O=C(N1CCN(c2ccc(F)cc2)CC1)N1CCC(C(=O)N[C@H](c2cccc(F)c2)C2CC2)(c2ccc(F)cc2)CC1 [Example 199, 4-(4-Fluoro-phenyl)-1-[4-(4-fluoro-phenyl)-piperazine-1-carbonyl]-piperidine-4-carboxylic acid [(S)-cyclopropyl-(3-fluoro-phenyl)-methyl]-amide] | 8.29
Cc1nc(-c2ccc(C(=O)N3CCC(C(=O)NC(c4ccc(F)cc4)C(F)(F)F)(c4ccc(F)cc4)CC3)cc2)no1 (centres unmarked) [Example 165, 4-(4-Fluoro-phenyl)-1-[4-(5-methyl-[1,2,4]oxadiazol-3-yl)-benzoyl]-piperidne-4-carboxylic acid [2,2,2-trifluoro-1-(4-fluoro-phenyl)-ethyl]-amide] | 7.18
CC(C)CC1(C(=O)N[C@@H](C)c2ccc(F)cc2)CCN(C(=O)c2ccc(-c3ccc(F)cc3)cc2)CC1 [Example 122, 1-(4′-Fluoro-biphenyl-4-carbonyl)-4-isobutyl-piperidine-4-carboxylic acid [(S)-1-(4-fluoro-phenyl)-ethyl]-amide] | 7.59
C[C@H](NC(=O)C1(c2ccccc2)CCN(C(=O)c2csc(-c3ccncc3)n2)CC1)c1ccccc1 [Example 27, 4-Phenyl-1-(2-pyridin-4-yl-thiazole-4-carbonyl)-piperidine-4-carboxylic acid ((S)-1-phenyl-ethyl)-amide] | 7.12

The remaining lines, values ahead:

pKi | SMILES
7.00 | Cc1ccc(-c2nc(C(=O)N3CCC(C(=O)N[C@@H](C)c4ccccc4)(c4ccccc4)CC3)cs2)cc1 [Example 21, 4-Phenyl-1 - (2-p-tolyl-thiazole-4-carbonyl)-piperidine-4-carboxylic acid ((S)-1-phenyl-ethyl)-amide]
7.02 | C[C@H](NC(=O)C1(c2ccccc2)CCN(C(=O)c2ccc(-n3cccc3)cc2)CC1)c1ccccc1 [Example 18, 4-Phenyl-1-(4-pyrrol-l-yl-benzoyl)-piperidine-4-carboxylic acid ((S)-1-phenyl-ethyl)-amide]
7.09 | C[C@H](NC(=O)C1(c2ccccc2)CCN(C(=O)c2ccc(-n3cncn3)nc2)CC1)c1ccccc1 [Example 39, 4-Phenyl-1-(6-[l,2,4]triazol-1-yl-pyridine-3-carbonyl)-piperidine-4-carboxylic acid ((S)-1-phenyl-ethyl)-amide]
7.12 | Cc1noc(-c2ccc(C(=O)N3CCC(C(=O)NC(C)c4ccc(F)c(C(F)(F)F)c4)(c4ccc(F)cc4)CC3)cc2)n1 (centres unmarked) [Example 162, 4-(4-Fluoro-phenyl)-1-[4-(3-methyl-[1,2,4]oxadiazol-5-yl)-benzoyl]-piperidine-4-carboxylic acid [1-(4-fluoro-3-trifluoromethyl-phenyl)-ethyl]-amide]
7.67 | O=C(c1ccc(N2CCCCC2=O)cc1)N1CCC(C(=O)N[C@H](c2cccc(F)c2)C2CC2)(c2ccc(F)cc2)CC1 [Example 198, 4-(4-Fluoro-phenyl)-1-[4-(2-oxo-piperidine-1-yl)-benzoyl]-piperidine-4-carboxylic acid [(S)-cyclopropyl-(3-fluoro-phenyl)-methyl]-amide]
7.83 | C[C@H](NC(=O)C1(c2ccccc2)CCN(C(=O)c2ccc(-c3ccc(C#N)cc3)cc2)CC1)c1ccccc1 [Example 55, 1-(4′-Cyano-biphenyl-4-carbonyl)-4-piperidine-phenyl-4-carboxylic acid ((S)-1-phenyl-ethyl)-amide]
7.96 | CC(C)C(NC(=O)C1(c2ccc(F)cc2)CCN(C(=O)c2ccc(-c3ccc(F)cc3)cc2)CC1)c1ccc(F)cc1 (centres unmarked) [Example 144, 1-(4′-Fluoro-biphenyl-carbonyl)-4-(4-fluoro-phenyl)-piperidne-4-carboxylic acid [1-(4-fluoro-phenyl)-2-methyl-propyl]-amide]
8.16 | CC(C)C(NC(=O)C1(c2ccc(F)cc2)CCN(C(=O)c2ccc(-c3ccc(F)cc3)cc2)CC1)c1ccccc1 (centres unmarked) [Example 143, 1-(4′-Fluoro-biphenyl-4-carbonyl)-4-(4-fluoro-phenyl)-piperidine-4-carboxylic acid (2-methyl-1-phenyl-propyl)-amide]

Tested on: not given
Experiment: not given
Settings: phase II trial; negative symptoms (depression, anhedonia, social isolation, memory and attention deficits); cited from earlier work

SMILES | activity in the treatment of negative symptoms of schizophrenia
CC(=O)N(C)C1(c2ccccc2)CCN(CCC[C@]2(c3ccc(Cl)c(Cl)c3)CCCN(C(=O)c3ccccc3)C2)CC1 [SR 142,801, Osanetant] | inactive

Same assay, conditions: phase II trial; positive symptoms (altered behaviour, delusion, hallucinations, extreme emotions, excited motor activity, incoherent speech); cited from earlier work

SMILES | activity on positive symptoms of schizophrenia
CC(=O)N(C)C1(c2ccccc2)CCN(CCC[C@]2(c3ccc(Cl)c(Cl)c3)CCCN(C(=O)c3ccccc3)C2)CC1 [SR 142,801, Osanetant] | active
